Assay results from patent US4859682A, “2-Halogenated-8- and 1,8-substituted ergolenes” (Richter Gedeon Vegyeszeti Gyar Rt., priority 1986, dated 1989).
Counter-ions that a name gives are not always drawn.

Assays:
[1] = Investigation of the cataleptogenic effect (catalepsy); format: in vivo, Hann-Wistar rats (male); conditions: rats; for ED50 at 5 h: rat, in vivo, po, hourly observed for 5 hours; for Catalepsy (percent): 60 mg/kg p.o.
Description: (§1) The investigations were carried out on Hann-Wistar (LATI=a Hungarian firm with the name "Institute for Breeding Laboratory Animals") rats and CFLP (LATI) mice. The compounds to be tested were orally administered in a volume of 5 ml/kg of body-weight (abbreviated: ml/kg) to rats and in a volume of 10 ml/kg to mice 60 minutes before starting the experiment.
(§2) The substances were suspended in a solution of Tween 80 of 0.5% strength and then diluted to the desired concentration with physiological saline solution.
(§3) The results are expressed as percentages or, alternatively the ED50 values together with the 95% fiducial limits are given as calculated by means of the probit analysis [J. T. Litschfield and F. Wilcoxon: J. Pharmacol. 96, 99 (1949)].
2. Investigation of the cataleptogenic effect
The method of G. Stile and H. Launer [Arzneim.-Forsch. 21, 252 (1971)] was used for this test.
Male rats weighing 90 to 110 g (n=6) were treated with different doses of the compounds to be tested, then the number of the animals showing catalepsy was hourly observed for 5 hours.

dopaminergic system = test: Investigation of the apomorphine hypothermia-reverting effect; format: in vivo, Hann-Wistar rats; conditions: 10 mg/kg p.o., apomorphine 5 mg/kg i.p., rats
Description: as §1, §2, §3
4. Investigation of the apomorphine hypothermia-reverting effect
The method of A. Barnett et al. [Arch. Int. Pharmacodyn. Ther. 198, 242 (1972)] was used for this test.
The rectal temperature of rats (n=5) was determined by using an Ellab thermometer before administering the compounds to be tested in a dose of 10 mg/kg. Thereafter, a dose of 5 mg/kg of apomorphine was intraperitoneally given and the temperature of the animals was hourly registered for 3 hours.
The significant apomorphine-antagonizing action (reversion of the hypothermia) of the compounds is a proof of inhibition of the dopaminergic system.

[2] = Investigation of the amphetamine group toxicity; format: in vivo, CFLP mice; conditions: d-amphetamine 21 mg/kg i.p., 24 hours, mice; for Amphetamine group tox. (percent): 30 mg/kg p.o.
Description: as §1, §2, §3
3. Investigation of the amphetamine group toxicity
The method of C. D. Proctor et al. [Arch. Int. Pharmacodyn. Ther. 163, 74 (1966)] was used for this test.
The examination was carried out on mice of both sexes weighing 22 to 27 g (n=5). At the 60th minute after administration of the compounds to be tested in a dose of 30 mg/kg, d-amphetamine in a dose of 21 mg/kg was intraperitoneally given to the animals tightly closed together (25 cm^2 /mouse) and the percentage of the perished animals was registered after 24 hours.

[3] = Inhibition of the conditioned avoidance response (CAR inhibition); format: in vivo, Hann-Wistar rats (male); conditions: rats; for ED50: Rattus norvegicus, po, 1 h, p.o., 60 min before test
Description: as §1, §2, §3
1. Inhibition of the conditioned avoidance response (CAR inhibition)
The method of D. Bovet et al. (in: Neuropsychopharmacology Vol. 2., p. 142 ed. Elsevier Publishing House, Amsterdam, 1961) was used for this test.
Male rats weighing 140 to 160 g were conditioned for 10 days in an automated six-channel shuttle box (VKI). Each one session consisted of 30 cycles; the time of the partial cycles was 15 seconds for intersignal time, 15 seconds for light stimulus, 10 seconds for light stimulus and footshock (0.8 mA). The selected animals (n=6; selected on the basis of a performance higher than 80% at the 10th day) were treated with a 20 mg/kg dose of the compounds to be tested before the 11th session and their performance (i.e. the mean of the number of the conditioned avoidance responses) was compared to the value obtained for each group at the previous day taken as control value.

[4] = Investigation of the asphyxial anoxia; format: in vivo, CFLP mice; conditions: for Asphyxial anoxia (percent): 50 mg/kg p.o.; for Asphyxial anoxia (percent) / ED50: mice; for ED50: Mus musculus, po, 1 h, survival time longer by 30% than control = protected
Description: as §1, §2, §3
5. Investigation of the asphyxial anoxia
The method of C. Caillard et al. [Life Sci. 16, 1607 (1975)] was used for this test.
Mice (n=5) of both sexes weighing 22 to 24 g were starved for 16 hours, then treated with a 50 mg/kg dose of the compounds to be tested. After 60 minutes, the animals were placed in tightly closed glass bottles of 100 ml volume and the survival time was registered.

[5] = H. Watchel et al., Life Sci. 33, 2583; cited from earlier work

Row | SMILES | ED50 at 5 h [1] | Apomorphine hypothermia, difference of temperature change vs. apomorphine alone, 60 min (dopaminergic system) | Apomorphine hypothermia, difference of temperature change vs. apomorphine alone, 120 min (dopaminergic system) | Amphetamine group tox. (percent) [2] | ED50 [3] | Asphyxial anoxia (percent) [4] | Catalepsy (percent) [1] | ED50 ([2]; Mus musculus, po, read-out: Amphetamine group tox. ED50) | ED50 [4] | CAR inhibition (percent) ([3]; 20 mg/kg p.o.) | antihypoxic effect (in words) ([4]; mice p.o.) | neuroleptic effect (in words) [5]
1 | CC(=O)OCC1C=C2c3cccc4c3c(c(Cl)n4C=O)CC2N(C)C1 (stereo not drawn) [B, 8-acetyloxymethyl-2-chloro-1-formyl-6-methyl-9-ergolene hydrogen sulfate] | 51.9 mg/kg | +2.0 °C | +2.4 °C | 10% | 3.7 mg/kg | 20% |  |  |  |  |  | 
2 | CN1CC(CCl)C=C2c3cccc4c3c(c(Cl)n4C=O)CC21 (stereo not drawn) [C, 2-chloro-8-chloromethyl-1-formyl-6-methyl-9-ergolene] |  | +0.6 °C | +1.2 °C | 0% | 12.9 mg/kg | 50% | 0% |  |  |  |  | 
3 | CC(=O)OCC1C=C2c3cccc4c3c(c(Cl)n4C(C)=O)CC2N(C)C1 (stereo not drawn) [A, 1-Acetyl-8-acetyloxymethyl-2-chloro-6-methyl-9-ergolene] | 46.5 mg/kg | +1.3 °C | +1.3 °C |  | 3.4 mg/kg |  |  | 19.6 mg/kg | 34.8 mg/kg |  |  | 
4 | CN1CC(CO)C=C2c3cccc4c3c(c(Cl)n4C)CC21 (stereo not drawn) [E, 2-chloro-1,6-dimethyl-8-hydroxymethyl-9-ergolene maleate] |  | +0.8 °C | +1.8 °C | 0% |  |  | 0% |  | 8.6 mg/kg | 24% | the antihypoxic effect comes into prominence | 
5 | CCN(CC)C(=O)NC1C=C2c3cccc4[nH]c(Br)c(c34)CC2N(C)C1 (stereo not drawn) [2-Bromolysuride, 2-bromolysuride, reference compound] | 3.3 mg/kg |  |  |  |  |  |  |  |  |  |  | strong neuroleptic effect
6 | CC(=O)OCC1C=C2c3cccc4c3c(c(Br)n4C(C)=O)CC2N(C)C1 (stereo not drawn) [D, 1-acetyl-8-acetyloxymethyl-2-bromo-6-methyl-9-ergolene] | 42.4 mg/kg | +0.9 °C | +1.7 °C | 0% | 4.6 mg/kg | 50% |  |  |  |  |  | 
